Test results as given in US20090088364A1, “Pharmaceutical composition useful for the treatment of invasive pulmonary aspergillosis” (priority 2004, published 2009).
“Also recorded” adds a separate entry of the source.

Tests used:
[1] = test system: A. fumigatus; assay: Survival of immunosuppressed IPA mice monitored for 15 days; assay type: in vivo, BALB/c mice; conditions: for survival / survival rate: IPA mice
Method: For preparation of animal models of invasive pulmonary aspergillosis, BALB/c mice were divided into various experimental and control groups and subgroups as shown in Table I.
The BALB/c mice were immunosuppressed by three intradermal injections of 2.5 mg of hydrocortisone acetate (Wycort) per 20 g mouse per day 1 day before, the day of, and the day after spore challenge.
On the day of spore challenge (day 0), mice were lightly anesthesized with ether and 10^8 spores of A. fumigatus in 50 μl of sterile saline were administered intranasally in the groups of IPA mice, while 50 μl of saline alone was administered to the untreated control mice. The MBL-treated control and IPA mice received 1 μg of MBL in 50 μl of saline per mouse on day 1, and the groups of untreated control and untreated IPA mice received 50 μl of saline alone intranasally on day 1.
(§1) The survival rates of the MBL treated and untreated mice were monitored for 15 days (FIG. 1). Among the rest of the mice left in each group, two mice were sacrificed each on 4th and 7th day after fungal exposure and lung tissues were collected for histopathology and counting the colony forming units of the fungus (CFUs). For estimating the pulmonary fungal load and hyphae density of the mice, lungs were aseptically removed from each group of mice sacrificed on the 4th and 7th day, after the spore challenge. A portion of the lung tissue (10 mg) was homogenized with a mechanical homogenizer for 1 min in sterile PBS. The suspension was serially diluted 2-fold and incubated in triplicates on Sabouraud Agar (SDA) plates at 37° C. A. fumigatus colonies were counted after 24 hrs incubation and the values represent average±standard deviation of six data points (three from each dilution). The number of Colony forming units (CFUs) that appeared on the plates corresponds to the pulmonary fungal load of different groups. […] The other portion of the lung was kept in 10% formalin for histopathological studies of the lung sections.
The animal model of invasive pulmonary aspergillosis is prepared by known methods of the immunosuppression of the mice (Allen et al, 1994) followed by exposure to A. fumigatus spores. The mice were immunosuppressed by three intradermal injections of 2.5 mg of hydrocortisone acetate (Wycort) per 20 g of mouse per day one day before, the day of, and the day after spore challenge (day −1, 0, +1).
On the day of spore challenge (day 0), mice were lightly anesthesized with ether and 10^8 spores of A. fumigatus in 50 μl of sterile saline were administered intranasally in the groups of IPA mice, while 50 μl of saline alone was administered to the untreated control mice.
The administration of different concentrations of purified human rMBL (1-5 µg/mice) in saline intranasally to different groups of mice is described in Table I. The animal models of invasive pulmonary aspergillosis and their respective controls were given treatment with rMBL and amphotericin B. The amphotericin B treated mice acted as the positive control, since amphotericin B is a standard known antifungal agent.
(§2) The 1 µg rMBL-treated control and IPA mice received 1 μg of rMBL in 50 μl of saline per mouse on day 1. Similarly, 3 μg rMBL-treated control and IPA mice received 3 μg of rMBL in 50 μl of saline per mouse on day 1 and 5 µg rMBL-treated control and IPA mice received 5 μg of rMBL in 50 μl of saline per mouse on day 1. The AmB-treated control and IPA mice received AmB (134.6 μg) only on day 1. The groups of untreated control and untreated IPA mice received 50 μl of saline without rMBL intranasally on day 1.
(§3) Different groups of mice were monitored for 15 days for survival and thereby their survival rate was calculated.

[2] = test system: A. fumigatus; assay: Pulmonary fungal load (CFU counts in lung homogenate) in IPA mice; assay type: in vivo, BALB/c mice; conditions: for fungal load: description
Description: as §1
For estimating the pulmonary fungal load and hyphae density of the mice, lungs were aseptically removed from each group of mice sacrificed on the 4th and 7th day, after the spore challenge. A portion of the lung tissue (10 mg) was homogenized with a mechanical homogenizer for 1 min in sterile PBS. The suspension was serially diluted 2-fold and incubated in triplicate on Sabauraud Agar (SDA) plates at 37° C. A. fumigatus colonies were counted after 24 hrs incubation and the values represent average±standard deviation of six data points (three from each dilution). The number of Colony forming units (CFUs) that appeared on the plates corresponds to the pulmonary fungal load of different groups.

[3] = test system: A. fumigatus; assay: Fungal hyphae density in lung sections (histopathology) of IPA mice; assay type: in vivo, BALB/c mice; conditions: for fungal hyphae density compared to untreated IPA mice: FIG. 3, histopathology of lung sections
Description: as §1
For visualization of the fungal hyphae in the lungs of the mice, a portion of the lungs collected from the mice sacrificed on 4th and 7th day from treated and untreated groups after spore challenge and trimmed of extraneous tissue was kept in 10% formalin for histopathological studies and stored at 4° C. The tissue sections, made using a microtome and stained with hematoxylin and eosin, were examined at the magnification of 40×.

[4] = Survival of immunosuppressed control mice that received no spores; assay type: in vivo, BALB/c mice
Method: as §2, §3

[5] = test system: A. fumigatus conidia; conditions: in vitro, purified human MBL; cited from earlier work
[6] = Example 6, PBS pH 7.2, rMBL 1-5 μg/mice
[7] = Example 8, TBS pH 7.6, rMBL 1-5 μg/mice
[8] = Example 9, TBS pH 8.0, rMBL 1-5 ug/mice
[9] = Example 6, PBS pH 7.2, treated with AmB or rMBL
[10] = Example 7, PBS pH 7.4, treated with AmB or rMBL
[11] = Example 8, TBS pH 7.6, treated with AmB or rMBL
[12] = Example 9, TBS pH 8.0, treated with AmB or rMBL

rMBL: purified human recombinant mannan-binding lectin (MBL) protein, in solution form produced by recombinant technology
survival ([1]; Example 6, PBS pH 7.2, 1 μg rMBL intranasally day 1): 80% | survival ([1]; Example 6, PBS pH 7.2, 3 μg rMBL intranasally day 1): 80% | survival ([1]; Example 6, PBS pH 7.2, 5 μg rMBL intranasally day 1): 40% | percentage of survival, change in treated IPA mice [1, 6]: increase | survival ([1]; Example 7, PBS pH 7.4, 1 μg rMBL intranasally day 1): 80% | survival ([1]; Example 7, PBS pH 7.4, 5 μg rMBL intranasally day 1): 40% | percentage of survival, change in treated IPA mice ([1]; Example 7, PBS pH 7.4, rMBL 1-5 μg/mice, FIG. 1): increase | survival ([1]; Example 8, TBS pH 7.6, 1 μg rMBL intranasally day 1): 80% | survival ([1]; Example 8, TBS pH 7.6, 5 μg rMBL intranasally day 1): 40% | percentage of survival, change in treated IPA mice [1, 7]: increase | survival ([1]; Example 9, TBS pH 8.0, 1 μg rMBL intranasally day 1): 80% | survival ([1]; Example 9, TBS pH 8.0, 5 μg rMBL intranasally day 1): 40% | percentage of survival, change in treated IPA mice [1, 8]: increase | survival rate ([1]; FIG. 1, 1 µg MBL intranasally on day 1): 80% | survival rate ([1]; FIG. 1, 3 µg MBL intranasally on day 1): 80% | pulmonary fungal load compared to untreated IPA mice [2, 6]: reduction | CFUs in the lung homogenates ([2]; Example 7, PBS pH 7.4, 4th day after spore challenge, 1 μg rMBL): 4.6±0.5 CFUs×10^6/gm of lung tissue | CFUs in the lung homogenates ([2]; Example 7, PBS pH 7.4, 4th day after spore challenge, 3 μg rMBL): 4.2±0.4 CFUs×10^6/gm of lung tissue | CFUs in the lung homogenates ([2]; Example 7, PBS pH 7.4, 4th day after spore challenge, 5 μg rMBL): 6.4±0.5 CFUs×10^6/gm of lung tissue | pulmonary fungal load compared to untreated IPA mice ([2]; Example 7, PBS pH 7.4, rMBL 1-5 μg/mice): reduction | pulmonary fungal load compared to untreated IPA mice [2, 7]: reduction | pulmonary fungal load compared to untreated IPA mice [2, 8]: reduction | pulmonary fungal load, CFU counts ([2]; FIG. 2, 4th day after spore challenge, 3 µg MBL treated IPA mice): 4.2±0.4 CFU counts per gram of the lung tissue | fungal load ([2]; FIG. 2, 1 µg MBL treated IPA mice): 4.6±0.5 CFUs×10^6/gm of lung tissue | fungal load ([2]; FIG. 2, 3 µg MBL treated IPA mice): 4.2±0.4 CFUs×10^6/gm of lung tissue | fungal hyphae density in the lungs compared to untreated IPA mice ([3]; Example 6, PBS pH 7.2): decrease | fungal hyphae density in the lungs compared to untreated IPA mice ([3]; Example 7, PBS pH 7.4, FIG. 3): decrease | fungal hyphae density in the lungs compared to untreated IPA mice ([3]; Example 8, TBS pH 7.6): decrease | fungal hyphae density in the lungs compared to untreated IPA mice ([3]; Example 9, TBS pH 8.0): decrease | fungal hyphae density compared to untreated IPA mice ([3]; listed as MBL): decreases; also recorded: drastic decrease | survival of control mice [4, 9]: 100% | survival of control mice [4, 10]: 100% | survival of control mice [4, 11]: 100% | survival of control mice [4, 12]: 100% | concentration range that most effectively mediates the killing of the fungus [5]: 1 to 5 µg/mL

C[C@@H]1[C@H](O)[C@@H](C)/C=C/C=C/C=C/C=C/C=C/C=C/C=C/[C@H](O[C@@H]2O[C@H](C)[C@@H](O)[C@H](N)[C@@H]2O)C[C@@H]2O[C@](O)(C[C@@H](O)C[C@@H](O)[C@H](O)CC[C@@H](O)C[C@@H](O)CC(=O)O[C@H]1C)C[C@H](O)[C@H]2C(=O)O [AmB, Amphotericin B, reference compound]
survival ([1]; Example 6, PBS pH 7.2, AmB 134.6 μg on day 1): 80% | survival ([1]; Example 7, PBS pH 7.4, AmB 134.6 μg on day 1): 80% | survival ([1]; Example 8, TBS pH 7.6, AmB 134.6 μg on day 1): 80% | survival ([1]; Example 9, TBS pH 8.0, AmB 134.6 μg on day 1): 80% | survival rate ([1]; FIG. 1, amphotericin B (134.6 μg) on day 1): 80% | CFUs in the lung homogenates ([2]; Example 7, PBS pH 7.4, 4th day after spore challenge, AmB 134.6 μg): 5.65±0.07 CFUs×10^6/gm of lung tissue | fungal load ([2]; FIG. 2, amphotericin B treated IPA mice): 5.65±0.07 CFUs×10^6/gm of lung tissue | fungal hyphae density compared to untreated IPA mice [3]: decreases; also recorded: drastic decrease | survival of control mice [4, 9]: 100% | survival of control mice [4, 10]: 100% | survival of control mice [4, 11]: 100% | survival of control mice [4, 12]: 100%
